According to article PMC9656787, “Design, Synthesis and Biological Evaluation of Novel 1,3,5-Triazines: Effect of Aromatic Ring Decoration on Affinity to 5-HT7 Receptor” (International Journal of Molecular Sciences, 2022):

How the values were obtained:
Danio rerio [1] = assay: Fish embryo toxicity (FET) test, OECD 236, mortality; format: in vivo; conditions: 96 hpf larvae, 96 h incubation at 28 °C
Protocol: (§1) The compounds were evaluated for their ecotoxicity on the Danio rerio experimental model. OECD 236 test with modifications was applied. Both compounds were found cardiotoxic within the non-toxic range, based on the heart rate measurement. For the compound 2, 5 µg/mL was found cardiotoxic (Figure 10) and for 12, 7.5 µg/mL (Figure 11). The results were confirmed by malformations observation. […] Moreover, scoliosis (S) and tail autophagy (TA) were also noted.
To determine the toxicity of the compounds, the fish embryo toxicity (FET) test was performed on zebrafish (Danio rerio) according to OECD Test Guideline 236. The collected embryos were transferred to a Petri dish with E3 medium (5 mM NaCl, 0.33 mM MgCl2, 0.33 mM CaCl2, 0.17 mM KCl; pH 7.2) and then placed in 6-well plates, 10 embryos per well. Stock solutions 2 and 12 were prepared in DMSO. […] At the end of the exposure period (96 hpf–hours postfertilization), acute toxicity was determined based on a positive outcome in any of the four visual indicators of lethality, including the coagulation of fertilized eggs, lack of somite formation, lack of detachment of the tailbud from the yolk sac and lack of heartbeat. The value of LD50 was calculated. Heartbeats were recorded to observe cardiotoxic effects. […]

[2] = Hepatotoxicity: HepG2 cell line viability; format: cell-based; conditions: human, HepG2 cells; HepG2, 50 µM, 72 h incubation
Protocol: (§2) The tested compounds 2 and 12 were evaluated in terms of cytotoxicity against the HepG2 cell line to assess their hepatotoxic potential (Figure 9). […].
(§3) All assays were performed according to the protocols described previously.
(§4) Figure 9 The effect of cytostatic drug doxorubicin and 2 (left), 12 (right) on hepatoma HepG2 cell line viability after 72 h of incubation at 37°, 5% CO2. The statistical significance (GraphPad Prism 8.0.1) was evaluated by a one–way ANOVA, followed by Bonferroni’s Comparison Test (* p < 0.05, ** p < 0.01, and **** p < 0.0001 compared with negative control DMSO 1% in growth media.

HepG2 cell line = assay: Hepatotoxicity: HepG2 cell line viability; format: cell-based; conditions: 72 h incubation; for cell viability (in words): HepG2, 100 µM; for effect on HepG2 cells at lower concentrations (in words): HepG2, <10 µM
Protocol: as §2, §3, §4

5-HT7 receptor = biological target: T1, 5-HT7 receptor (Homo sapiens, UniProt P34969); assay: Radioligand binding assay, 5-HT7 receptor; conditions: for Ki: mean ± SD, triplicate at 7 concentrations, Cheng-Prusoff, read-out: Affinity Ki 5-HT7R
T1 construct: host or cells: cell membranes from cultured cells
T1 sequence (P34969 1-432 limits assumed): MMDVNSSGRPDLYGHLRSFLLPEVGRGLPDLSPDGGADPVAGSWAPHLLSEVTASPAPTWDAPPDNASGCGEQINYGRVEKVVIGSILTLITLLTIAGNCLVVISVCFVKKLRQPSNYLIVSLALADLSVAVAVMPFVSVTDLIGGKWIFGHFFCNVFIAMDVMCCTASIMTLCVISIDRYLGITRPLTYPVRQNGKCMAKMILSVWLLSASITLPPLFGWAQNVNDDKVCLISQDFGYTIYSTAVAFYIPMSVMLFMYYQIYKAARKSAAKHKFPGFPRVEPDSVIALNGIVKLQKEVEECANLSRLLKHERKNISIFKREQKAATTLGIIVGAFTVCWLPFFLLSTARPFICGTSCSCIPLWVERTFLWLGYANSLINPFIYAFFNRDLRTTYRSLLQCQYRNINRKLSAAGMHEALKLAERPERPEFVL
Protocol: (§5) The affinity of the studied compounds to 5-HT1A, 5-HT2A, 5-HT6, 5-HT7, and D2 receptors was evaluated by a radioligand assay, as reported previously (Table 1). Each compound was tested in triplicate at seven concentrations (from 0.1 nM to 100 µM). Inhibition constants (Ki) were calculated from the Cheng–Prusoff equation [23].
(§6) The cell culture, cell membranes, and radioligand binding assays were performed in accordance with standard protocols.

5-HT2A receptor = biological target: T2, 5-HT2A receptor (Homo sapiens, UniProt P28223); assay: Radioligand binding assay, 5-HT2A receptor; conditions: mean ± SD, triplicate at 7 concentrations, Cheng-Prusoff; read-out: Affinity Ki 5-HT2AR
T2 construct: host or cells: cell membranes from cultured cells
T2 sequence (P28223 whole entry): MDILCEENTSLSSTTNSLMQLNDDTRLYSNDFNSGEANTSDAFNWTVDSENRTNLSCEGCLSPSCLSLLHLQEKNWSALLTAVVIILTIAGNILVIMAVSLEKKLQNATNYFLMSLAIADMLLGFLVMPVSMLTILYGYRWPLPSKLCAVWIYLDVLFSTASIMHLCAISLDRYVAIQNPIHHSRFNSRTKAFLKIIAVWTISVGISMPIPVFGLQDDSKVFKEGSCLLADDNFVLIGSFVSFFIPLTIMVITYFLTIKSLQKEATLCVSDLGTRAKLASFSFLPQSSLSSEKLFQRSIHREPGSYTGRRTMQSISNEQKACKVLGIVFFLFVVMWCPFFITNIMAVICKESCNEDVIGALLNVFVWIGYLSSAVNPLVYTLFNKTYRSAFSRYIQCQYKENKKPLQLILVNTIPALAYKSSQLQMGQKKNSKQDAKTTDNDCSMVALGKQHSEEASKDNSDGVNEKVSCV
Protocol: as §5, §6

Danio rerio [3] = assay: In vivo cardiotoxicity (heart rate, malformations) in zebrafish embryos; conditions: 96 h
Protocol: as §1
To determine the toxicity of the compounds, the fish embryo toxicity (FET) test was performed on zebrafish (Danio rerio) according to OECD Test Guideline 236. The collected embryos were transferred to a Petri dish with E3 medium (5 mM NaCl, 0.33 mM MgCl2, 0.33 mM CaCl2, 0.17 mM KCl; pH 7.2) and then placed in 6-well plates, 10 embryos per well. Stock solutions 2 and 12 were prepared in DMSO. In these experiments, the range of different concentrations of the solutions was prepared by dissolving stock solutions in the E3 medium each time directly before addition to the wells. The solutions were changed once daily, and the embryos were maintained in the incubator at 28.5 °C. At the end of the exposure period (96 hpf–hours postfertilization), acute toxicity was determined based on a positive outcome in any of the four visual indicators of lethality, including the coagulation of fertilized eggs, lack of somite formation, lack of detachment of the tailbud from the yolk sac and lack of heartbeat. The value of LD50 was calculated. Heartbeats were recorded to observe cardiotoxic effects. Moreover, images of the fish from each group were taken at the final time point to monitor the occurrence of developmental malformations. For the observations, a Discovery V8 Stereo optical microscope and Zeiss hardware were used. A dose-response curve was generated using Prism 8.0.1 (GraphPad Software) by fitting a sigmoid curve model to experimental data points. The concentrations of the compounds of interest causing 50% mortality (LD50) of 96 hpf larvae of Danio rerio were calculated.

5-HT1A receptor = biological target: T3, 5-HT1A receptor (Homo sapiens, UniProt P08908); assay: Radioligand binding assay, 5-HT1A receptor; conditions: mean ± SD, triplicate at 7 concentrations, Cheng-Prusoff; read-out: Affinity Ki 5-HT1AR
T3 construct: host or cells: cell membranes from cultured cells
T3 sequence (P08908 1-422): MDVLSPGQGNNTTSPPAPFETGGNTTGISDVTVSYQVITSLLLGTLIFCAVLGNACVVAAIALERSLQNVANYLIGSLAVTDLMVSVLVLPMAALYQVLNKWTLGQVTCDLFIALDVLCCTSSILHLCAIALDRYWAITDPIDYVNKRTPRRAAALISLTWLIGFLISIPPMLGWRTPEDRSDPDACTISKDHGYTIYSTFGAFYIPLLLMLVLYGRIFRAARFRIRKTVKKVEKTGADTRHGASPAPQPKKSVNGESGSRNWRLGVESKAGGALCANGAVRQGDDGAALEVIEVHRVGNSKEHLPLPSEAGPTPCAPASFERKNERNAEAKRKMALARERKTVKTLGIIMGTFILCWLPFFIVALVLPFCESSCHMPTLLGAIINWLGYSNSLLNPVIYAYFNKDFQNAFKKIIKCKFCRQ
Protocol: as §5, §6

CYP3A4 = CYP3A4 (Homo sapiens, UniProt P08684); assay: CYP3A4 activity (drug-drug interaction) assay; format: in vitro ADME; conditions: for inhibition activity toward CYP3A4 (in words): compound at 1 µM (concentration of ketoconazole) or lower; for %CYP3A4 activity: negative control = 100%
Sequence of CYP3A4 (P08684 whole entry): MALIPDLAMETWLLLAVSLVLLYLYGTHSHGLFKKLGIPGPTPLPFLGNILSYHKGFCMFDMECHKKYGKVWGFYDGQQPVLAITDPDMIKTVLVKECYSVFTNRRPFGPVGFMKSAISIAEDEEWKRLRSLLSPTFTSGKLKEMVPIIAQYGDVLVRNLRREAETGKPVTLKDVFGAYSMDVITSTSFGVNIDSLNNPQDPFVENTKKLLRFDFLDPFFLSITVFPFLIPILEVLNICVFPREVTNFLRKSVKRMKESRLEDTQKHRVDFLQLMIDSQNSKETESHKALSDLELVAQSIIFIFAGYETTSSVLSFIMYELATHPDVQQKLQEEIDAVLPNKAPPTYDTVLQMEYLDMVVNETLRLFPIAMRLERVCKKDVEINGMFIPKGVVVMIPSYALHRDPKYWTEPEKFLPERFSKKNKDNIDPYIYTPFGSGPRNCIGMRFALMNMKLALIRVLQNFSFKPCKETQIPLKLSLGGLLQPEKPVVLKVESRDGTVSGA
Protocol: Potential drug–drug interactions (DDIs) are an important aspect that should be considered when designing new compounds. Isoenzyme CYP3A4 is one of the varieties of enzymes responsible for xenobiotic metabolism. We evaluated active compounds 2 and 12 in terms of affinity toward this isoenzyme (Figure 8).
as §3
Figure 8 The influence of 2 (left), 12 (right), and ketoconazole (KE) on CYP3A4 activity. Statistical significance (** p < 0.01, **** p < 0.0001) was analyzed by Graph Pad Prism 8.0.1 software using One-way ANOVA and Bonferroni’s Multiple Comparison Post Test in comparison with the negative control (100% of CYP3A4 activity). The compounds were examined in triplicate.

D2 receptor = biological target: T4, D2 receptor (Homo sapiens, UniProt P14416); assay: Radioligand binding assay, D2 receptor; conditions: mean ± SD, triplicate at 7 concentrations, Cheng-Prusoff; read-out: Affinity Ki D2R
T4 construct: host or cells: cell membranes from cultured cells
T4 sequence (P14416 whole entry): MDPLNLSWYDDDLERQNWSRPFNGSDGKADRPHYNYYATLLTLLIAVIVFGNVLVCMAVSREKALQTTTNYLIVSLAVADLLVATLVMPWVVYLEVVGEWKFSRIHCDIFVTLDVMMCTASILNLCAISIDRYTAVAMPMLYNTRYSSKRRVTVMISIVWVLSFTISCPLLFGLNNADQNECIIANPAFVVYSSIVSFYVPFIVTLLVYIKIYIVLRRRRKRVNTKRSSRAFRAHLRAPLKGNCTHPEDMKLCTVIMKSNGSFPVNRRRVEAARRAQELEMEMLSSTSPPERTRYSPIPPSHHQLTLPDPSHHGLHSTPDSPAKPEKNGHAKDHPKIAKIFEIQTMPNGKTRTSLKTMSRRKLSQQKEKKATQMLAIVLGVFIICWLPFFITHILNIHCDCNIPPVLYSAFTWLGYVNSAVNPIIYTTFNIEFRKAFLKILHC
Protocol: as §5, §6

5-HT6 receptor = biological target: T5, 5-HT6 receptor (Homo sapiens, UniProt P50406); assay: Radioligand binding assay, 5-HT6 receptor; conditions: mean ± SD, triplicate at 7 concentrations, Cheng-Prusoff; read-out: Affinity Ki 5-HT6R
T5 construct: host or cells: cell membranes from cultured cells
T5 sequence (P50406 whole entry): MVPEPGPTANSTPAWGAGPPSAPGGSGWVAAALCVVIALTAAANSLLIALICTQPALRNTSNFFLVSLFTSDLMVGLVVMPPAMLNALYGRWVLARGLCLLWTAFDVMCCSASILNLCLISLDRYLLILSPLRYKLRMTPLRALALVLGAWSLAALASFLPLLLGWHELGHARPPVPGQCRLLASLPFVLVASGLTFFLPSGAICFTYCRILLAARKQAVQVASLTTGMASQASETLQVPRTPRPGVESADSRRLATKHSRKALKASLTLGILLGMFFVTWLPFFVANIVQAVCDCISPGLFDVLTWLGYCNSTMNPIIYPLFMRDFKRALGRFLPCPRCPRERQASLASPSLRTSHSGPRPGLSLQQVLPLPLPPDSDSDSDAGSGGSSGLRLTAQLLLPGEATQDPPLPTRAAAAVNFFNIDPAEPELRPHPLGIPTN
Protocol: as §5, §6

[4] = Metabolic stability in mouse liver microsomes (MLMs), UHPLC-MS; format: in vitro ADME; conditions: for Metabolic Pathway: metabolites M1, M2 ... in order, after incubation with MLMs; for remaining at 2 h: mouse, liver microsomes; for remaining at 2 h / % Remaining: original compound remaining after 2 h (120 min) incubation with MLMs
Protocol: It seems, however, that substituents at the B ring of the ligands have a more important role. […] The data correspond to our previous results, in which substituents at the B ring increased metabolic stability. Potential sites in the molecules sensitive to enzyme activity and leading to degradation were proposed using an in silico approach, also with MetaSite 6.0.1 (Figure 7).
as §3

| SMILES | LD50 (mortality) (Danio rerio [1]) [µg/mL] | viability at 72 h, 50 µM [2] [%] | cell viability (in words) (HepG2 cell line) | effect on HepG2 cells at lower concentrations (in words) (HepG2 cell line) | activity with respect to 5-HT7R (in words) (5-HT7 receptor; SAR discussion of radioligand data) | Ki (5-HT7 receptor) [nM] | Ki (5-HT2A receptor) [nM] | concentration at which pericardial edema (PE) was observed (Danio rerio [3]) [ng/mL] | concentration found cardiotoxic (heart rate measurement) (Danio rerio [3]) [ng/mL] | Ki (5-HT1A receptor) [nM] | inhibition activity toward CYP3A4 (in words) (CYP3A4) | %CYP3A4 activity (CYP3A4; compound at 10 µM) [%] | %CYP3A4 activity (CYP3A4; compound at 25 µM) [%] | Ki (D2 receptor) [nM] | Ki (5-HT6 receptor) [nM] | Metabolic Pathway [4] | remaining at 2 h [4] [%] | % Remaining [4] [%] |
| --- | --- | --- | --- | --- | --- | --- | --- | --- | --- | --- | --- | --- | --- | --- | --- | --- | --- | --- |
| Cl.Nc1nc(NCCNc2ccc(F)cc2)nc(NCCc2c[nH]c3ccccc23)n1 [Compound 12, N^2-(2-(1H-Indol-3-yl)ethyl)-N^4-(2-((4-Fluorophenyl)amino)ethyl)-1,3,5-Triazine-2,4,6-Triamine Hydrochloride] | 16.95 | 20 | practically no viable | proliferative activity | active | 18 ± 3 | 3570 ± 491 | 7500 | 7500 | 43300 | no or slight inhibition activity | 20 | < 15 | 3000 ± 679 | 1630 ± 301 | decomposition hydroxylation dehydrogenation dehydrogenation double hydroxylation hydroxylation dehydrogenation | 29 | 29.12 |
| Cl.Nc1nc(NCCc2ccccc2)nc(NCCc2c[nH]c3ccc(F)cc23)n1 [Compound 2, N^2-(2-(5-Fluoro-1H-Indol-3-yl)ethyl)-N^4-Phenethyl-1,3,5-Triazine-2,4,6-Triamine Hydrochloride] | 4.869 | 35 | practically no viable | proliferative activity |  | 8 ± 2 | 413 ± 67 | 5000 | 5000 | 13900 | no or slight inhibition activity | 50 | < 15 |  | 505 ± 61 | hydroxylation ketone formation double hydroxylation dehydrogenation dehydrogenation double hydroxylation hydroxylation ketone formation and hydroxylation hydroxylation | 20 | 19.79 |
